Data as given in ChEMBL document CHEMBL1201862, “PubChem BioAssay data set” (2004).
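Each compound was tested at five concentrations against cells in 96-well plates for 48 hours. GI50 = concentration required for 50% inhibition of growth.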 Activity calls are given as the source filed them. Rule as the data show it: active = GI50 up to about 1.1 µM and inactive = higher.

Tests used:
Experiment in all cases: NCI-60 cell line screen, 48 h
[1] = test system: M14
[2] = test system: BT-549
[3] = test system: DU-145
[4] = test system: LOX IMVI
[5] = test system: NCI-H23
[6] = test system: RPMI-8226
[7] = test system: TK-10
[8] = test system: SK-MEL-2
[9] = test system: SK-MEL-28
[10] = test system: SK-MEL-5
[11] = test system: OVCAR-3
[12] = test system: SF-295
[13] = test system: COLO 205
[14] = test system: EKVX
[15] = test system: A498
[16] = test system: PC-3
[17] = test system: MDA-MB-435
[18] = test system: A549
[19] = test system: HL-60
[20] = test system: IGROV-1
[21] = test system: HCC 2998
[22] = test system: MDA-N
[23] = test system: SN12C
[24] = test system: UACC-62
[25] = test system: KM12
[26] = test system: SNB-19
[27] = test system: U-251
[28] = test system: HCT-15
[29] = test system: RXF 393
[30] = test system: 786-0
[31] = test system: HCT-116
[32] = test system: Hs-578T
[33] = test system: HT-29
[34] = test system: ACHN
[35] = test system: OVCAR-8
[36] = test system: SK-OV-3
[37] = test system: MDA-MB-231
[38] = test system: MCF7
[39] = test system: HOP-62
[40] = test system: NCI/ADR-RES
[41] = test system: SF-268
[42] = test system: NCI-H460
[43] = test system: NCI-H226
[44] = test system: K562
[45] = test system: NCI-H522
[46] = test system: CAKI-1
[47] = test system: CCRF-CEM
[48] = test system: HOP-92
[49] = test system: UO-31
[50] = test system: OVCAR-5
[51] = test system: Malme-3M
[52] = test system: UACC-257
[53] = test system: OVCAR-4
[54] = test system: SW-620
[55] = test system: T47D
[56] = test system: SNB-75
[57] = test system: SF-539
[58] = test system: MOLT-4
[59] = test system: SR

Compound: CC(C(=O)c1ccncc1)c1ccccn1 (stereo not given)
- GI50 [1]: > 100 µM (inactive)
- GI50 [2]: > 100 µM (inactive)
- GI50 [3]: > 100 µM (inactive)
- GI50 [4]: > 100 µM (inactive)
- GI50 [5]: > 100 µM (inactive)
- GI50 [6]: > 100 µM (inactive)
- GI50 [7]: > 100 µM (inactive)
- GI50 [8]: > 100 µM (inactive)
- GI50 [9]: > 100 µM (inactive)
- GI50 [10]: > 100 µM (inactive)
- GI50 [11]: > 100 µM (inactive)
- GI50 [12]: > 100 µM (inactive)
- GI50 [13]: > 100 µM (inactive)
- GI50 [14]: > 100 µM (inactive)
- GI50 [15]: > 100 µM (inactive)
- GI50 [16]: > 100 µM (inactive)
- GI50 [17]: > 100 µM (inactive)
- GI50 [18]: > 100 µM (inactive)
- GI50 [19]: > 100 µM (inactive)
- GI50 [20]: > 100 µM (inactive)
- GI50 [21]: > 100 µM (inactive)
- GI50 [22]: > 100 µM (inactive)
- GI50 [23]: > 100 µM (inactive)
- GI50 [24]: > 100 µM (inactive)
- GI50 [25]: > 100 µM (inactive)
- GI50 [26]: > 100 µM (inactive)
- GI50 [27]: > 100 µM (inactive)
- GI50 [28]: > 100 µM
- GI50 [29]: > 100 µM (inactive)
- GI50 [30]: > 100 µM (inactive)
- GI50 [31]: > 100 µM (inactive)
- GI50 [32]: > 100 µM (inactive)
- GI50 [33]: > 100 µM (inactive)
- GI50 [34]: > 100 µM (inactive)
- GI50 [35]: > 100 µM (inactive)
- GI50 [36]: > 100 µM (inactive)
- GI50 [37]: > 100 µM (inactive)
- GI50 [38]: > 100 µM (inactive)
- GI50 [39]: > 100 µM (inactive)
- GI50 [40]: > 100 µM (inactive)
- GI50 [41]: > 100 µM (inactive)
- GI50 [42]: > 100 µM (inactive)
- GI50 [43]: > 100 µM (inactive)
- GI50 [44]: > 100 µM (inactive)
- GI50 [45]: > 100 µM (inactive)
- GI50 [46]: > 100 µM (inactive)
- GI50 [47]: > 100 µM (inactive)
- GI50 [48]: > 100 µM (inactive)
- GI50 [49]: > 100 µM (inactive)
- GI50 [50]: > 100 µM (inactive)
- GI50 [51]: > 100 µM (inactive)
- GI50 [52]: > 100 µM (inactive)
- GI50 [53]: > 100 µM (inactive)
- GI50 [54]: > 100 µM (inactive)
- GI50 [55]: > 100 µM (inactive)

Compound: COc1ccccc1OCC(=N/NC(=O)c1ccncc1)/N=C/c1cccnc1
- GI50 [1]: > 100 µM (inactive)
- GI50 [2]: > 100 µM (inactive)
- GI50 [3]: > 100 µM (inactive)
- GI50 [4]: > 100 µM (inactive)
- GI50 [5]: > 100 µM (inactive)
- GI50 [6]: > 100 µM (inactive)
- GI50 [7]: > 100 µM (inactive)
- GI50 [8]: > 100 µM (inactive)
- GI50 [9]: > 100 µM (inactive)
- GI50 [56]: 36.5 µM (inactive)
- GI50 [11]: > 100 µM (inactive)
- GI50 [12]: > 100 µM (inactive)
- GI50 [13]: > 100 µM (inactive)
- GI50 [14]: > 100 µM (inactive)
- GI50 [15]: > 100 µM (inactive)
- GI50 [16]: > 100 µM (inactive)
- GI50 [17]: > 100 µM (inactive)
- GI50 [18]: > 100 µM (inactive)
- GI50 [19]: > 100 µM (inactive)
- GI50 [20]: > 100 µM (inactive)
- GI50 [21]: > 100 µM (inactive)
- GI50 [22]: > 100 µM (inactive)
- GI50 [57]: > 100 µM (inactive)
- GI50 [24]: > 100 µM (inactive)
- GI50 [25]: > 100 µM (inactive)
- GI50 [26]: > 100 µM (inactive)
- GI50 [27]: > 100 µM (inactive)
- GI50 [28]: > 100 µM
- GI50 [29]: > 100 µM (inactive)
- GI50 [30]: > 100 µM (inactive)
- GI50 [31]: > 100 µM (inactive)
- GI50 [32]: > 100 µM (inactive)
- GI50 [33]: > 100 µM (inactive)
- GI50 [34]: > 100 µM (inactive)
- GI50 [35]: > 100 µM (inactive)
- GI50 [36]: > 100 µM (inactive)
- GI50 [58]: > 100 µM (inactive)
- GI50 [37]: > 100 µM (inactive)
- GI50 [38]: > 100 µM (inactive)
- GI50 [39]: > 100 µM (inactive)
- GI50 [40]: > 100 µM (inactive)
- GI50 [41]: > 100 µM (inactive)
- GI50 [42]: > 100 µM (inactive)
- GI50 [43]: > 100 µM (inactive)
- GI50 [44]: > 100 µM (inactive)
- GI50 [45]: > 100 µM (inactive)
- GI50 [46]: > 100 µM (inactive)
- GI50 [47]: > 100 µM (inactive)
- GI50 [48]: > 100 µM (inactive)
- GI50 [50]: > 100 µM (inactive)
- GI50 [51]: > 100 µM (inactive)
- GI50 [52]: > 100 µM (inactive)
- GI50 [53]: > 100 µM (inactive)
- GI50 [54]: > 100 µM (inactive)
- GI50 [55]: > 100 µM (inactive)

Compound: O=C1OC(c2ccccc2)=N/C1=C\c1ccc(F)cc1
- GI50 [1]: > 100 µM (inactive)
- GI50 [2]: 75.3 µM (inactive)
- GI50 [3]: > 100 µM (inactive)
- GI50 [4]: 38.9 µM (inactive)
- GI50 [5]: > 100 µM (inactive)
- GI50 [6]: 38.9 µM (inactive)
- GI50 [7]: > 100 µM (inactive)
- GI50 [8]: > 100 µM (inactive)
- GI50 [9]: > 100 µM (inactive)
- GI50 [10]: 80.5 µM (inactive)
- GI50 [56]: > 100 µM (inactive)
- GI50 [11]: 22.2 µM (inactive)
- GI50 [13]: > 100 µM (inactive)
- GI50 [14]: > 100 µM (inactive)
- GI50 [15]: > 100 µM (inactive)
- GI50 [16]: > 100 µM (inactive)
- GI50 [17]: > 100 µM (inactive)
- GI50 [59]: > 100 µM (inactive)
- GI50 [18]: > 100 µM (inactive)
- GI50 [19]: > 100 µM (inactive)
- GI50 [20]: 71.3 µM (inactive)
- GI50 [21]: > 100 µM (inactive)
- GI50 [22]: > 100 µM (inactive)
- GI50 [23]: > 100 µM (inactive)
- GI50 [24]: > 100 µM (inactive)
- GI50 [25]: > 100 µM (inactive)
- GI50 [26]: > 100 µM (inactive)
- GI50 [27]: 89.7 µM (inactive)
- GI50 [28]: > 100 µM
- GI50 [29]: > 100 µM (inactive)
- GI50 [30]: > 100 µM (inactive)
- GI50 [31]: > 100 µM (inactive)
- GI50 [32]: > 100 µM (inactive)
- GI50 [33]: > 100 µM (inactive)
- GI50 [34]: > 100 µM (inactive)
- GI50 [35]: 47 µM (inactive)
- GI50 [36]: > 100 µM (inactive)
- GI50 [58]: 50.6 µM (inactive)
- GI50 [37]: > 100 µM (inactive)
- GI50 [39]: 42.4 µM (inactive)
- GI50 [40]: 46.6 µM (inactive)
- GI50 [41]: 66.8 µM (inactive)
- GI50 [42]: > 100 µM (inactive)
- GI50 [43]: 35.6 µM (inactive)
- GI50 [44]: > 100 µM (inactive)
- GI50 [45]: 40.5 µM (inactive)
- GI50 [46]: > 100 µM (inactive)
- GI50 [47]: 35.8 µM (inactive)
- GI50 [48]: > 100 µM (inactive)
- GI50 [49]: > 100 µM (inactive)
- GI50 [50]: > 100 µM (inactive)
- GI50 [52]: > 100 µM (inactive)
- GI50 [53]: 97.3 µM (inactive)
- GI50 [54]: > 100 µM (inactive)
- GI50 [55]: > 100 µM (inactive)
